Results reported in the kinase profiling compilation of Christmann-Franck et al. (2016).

Experiments:
[1] = target: INSR (human) (UniProt P06213); assay: SelectScreen, TR FRET
[2] = target: MAP2K1 (human) (UniProt Q02750); assay: SelectScreen, TR FRET
[3] = target: NTRK1 (human) (UniProt P04629); assay: SelectScreen, TR FRET
[4] = target: LRRK2 (human) (UniProt Q5S007); assay: SelectScreen, TR FRET
[5] = target: NTRK3 (human) (UniProt Q16288); assay: SelectScreen, TR FRET
[6] = target: PRKCI (human) (UniProt P41743); assay: SelectScreen, TR FRET
[7] = target: CDC42BPA (human) (UniProt Q5VT25); assay: SelectScreen, TR FRET
[8] = target: MAP3K8 (human) (UniProt P41279); assay: SelectScreen, TR FRET
[9] = target: TBK1 (human) (UniProt Q9UHD2); assay: SelectScreen, TR FRET
[10] = target: GRK4 (human) (UniProt P32298); assay: SelectScreen, TR FRET
[11] = target: CDK5 CDK5R1 p25 (human) (UniProt Q15078+Q00535); assay: SelectScreen, TR FRET
[12] = target: TYK2 JH1 JH2 (human) (UniProt P29597); assay: SelectScreen, TR FRET
[13] = target: MARK2 (human) (UniProt Q7KZI7); assay: SelectScreen, TR FRET
[14] = target: EPHA3 (human) (UniProt P29320); assay: SelectScreen, TR FRET
[15] = target: DYRK1A (human) (UniProt Q13627); assay: SelectScreen, TR FRET
[16] = target: CDK9 CCNT1 (human) (UniProt O60563+P50750); assay: SelectScreen, TR FRET
[17] = target: ROCK1 (human) (UniProt Q13464); assay: SelectScreen, TR FRET
[18] = target: KIT (human) (UniProt P10721); assay: SelectScreen, TR FRET
[19] = target: CDK7 CCNH MNAT1 (human) (UniProt P50613+P51948+P51946); assay: SelectScreen, TR FRET
[20] = system: RAF1 (human), P04049 [Y340D/Y341D]; assay: SelectScreen, TR FRET
[21] = target: CLK2 (human) (UniProt P49760); assay: Caliper, Mobility shift assay off-chip
[22] = target: FRK (human) (UniProt P42685); assay: Caliper, Mobility shift assay off-chip
[23] = target: MST1R (human) (UniProt Q04912); assay: Caliper, Mobility shift assay off-chip
[24] = target: TXK (human) (UniProt P42681); assay: Caliper, Mobility shift assay off-chip
[25] = target: ALK (human) (UniProt Q9UM73); assay: Caliper, Mobility shift assay off-chip
[26] = target: CDK1 (human) (UniProt P06493); assay: Caliper, Mobility shift assay off-chip
[27] = target: RET (human) (UniProt P07949); assay: Caliper, Mobility shift assay off-chip
[28] = target: MET (human) (UniProt P08581); assay: TR FRET
[29] = target: MET (human) (UniProt P08581); assay: Caliper, Mobility shift assay off-chip

## Cn1cc(-c2cnc3ccc4ccc(CC(=O)NCc5ccccn5)cc4c(=O)c3c2)cn1
[1]; compound 0.1 µM
  inhibition: 9.9%
[1]; compound 1.0 µM
  inhibition: 7.3%
[1]; compound 10.0 µM
  inhibition: 0.6%
[2]; compound 0.1 µM
  inhibition: 25.7%
[2]; compound 1.0 µM
  inhibition: 23.8%
[2]; compound 10.0 µM
  inhibition: 13.5%
[3]; compound 0.1 µM
  inhibition: 18.9%
[3]; compound 1.0 µM
  inhibition: 37.2%
[3]; compound 10.0 µM
  inhibition: 68.9%
[4]; compound 0.1 µM
  inhibition: 19.9%
[4]; compound 1.0 µM
  inhibition: 25.4%
[4]; compound 10.0 µM
  inhibition: 54.3%
[5]; compound 0.1 µM
  inhibition: 18.8%
[5]; compound 1.0 µM
  inhibition: 34.5%
[5]; compound 10.0 µM
  inhibition: 77.1%
[6]; compound 0.1 µM
  inhibition: 10.5%
[6]; compound 1.0 µM
  inhibition: 10.2%
[6]; compound 10.0 µM
  inhibition: 8.8%
[7]; compound 0.1 µM
  inhibition: 6.3%
[7]; compound 1.0 µM
  inhibition: 8.7%
[7]; compound 10.0 µM
  inhibition: 8.6%
[8]; compound 0.1 µM
  inhibition: 28%
[8]; compound 1.0 µM
  inhibition: 23.4%
[8]; compound 10.0 µM
  inhibition: 12.9%
[9]; compound 0.1 µM
  inhibition: -1.6%
[9]; compound 1.0 µM
  inhibition: 7.8%
[9]; compound 10.0 µM
  inhibition: 33.2%
[10]; compound 0.1 µM
  inhibition: 12.9%
[10]; compound 1.0 µM
  inhibition: 11.9%
[10]; compound 10.0 µM
  inhibition: 37.1%
[11]; compound 0.1 µM
  inhibition: 6.6%
[11]; compound 1.0 µM
  inhibition: 6.7%
[11]; compound 10.0 µM
  inhibition: 14.5%
[12]; compound 0.1 µM
  inhibition: 5.1%
[12]; compound 1.0 µM
  inhibition: 8%
[12]; compound 10.0 µM
  inhibition: 23.7%
[13]; compound 0.1 µM
  inhibition: 12.1%
[13]; compound 1.0 µM
  inhibition: 14.2%
[13]; compound 10.0 µM
  inhibition: 19.7%
[14]; compound 0.1 µM
  inhibition: -1.7%
[14]; compound 1.0 µM
  inhibition: 5.2%
[14]; compound 10.0 µM
  inhibition: 16.4%
[15]; compound 0.1 µM
  inhibition: 10.7%
[15]; compound 1.0 µM
  inhibition: 33.3%
[15]; compound 10.0 µM
  inhibition: 79%
[16]; compound 0.1 µM
  inhibition: 9.4%
[16]; compound 1.0 µM
  inhibition: 4.4%
[16]; compound 10.0 µM
  inhibition: 10.8%
[17]; compound 0.1 µM
  inhibition: 0%
[17]; compound 1.0 µM
  inhibition: 2.5%
[17]; compound 10.0 µM
  inhibition: 10.9%
[18]; compound 0.1 µM
  inhibition: 9.7%
[18]; compound 1.0 µM
  inhibition: 13.2%
[18]; compound 10.0 µM
  inhibition: 48.1%
[19]; compound 0.1 µM
  inhibition: 1%
[19]; compound 1.0 µM
  inhibition: 6.4%
[19]; compound 10.0 µM
  inhibition: 11.8%
[20]; compound 0.1 µM
  inhibition: 26.2%
[20]; compound 1.0 µM
  inhibition: 25.4%
[20]; compound 10.0 µM
  inhibition: 7%

## Cn1cc(-c2cnc3ccc4ccc(CS(=O)(=O)NC5CCCCC5)cc4c(=O)c3c2)cn1
[21]; compound 0.01 µM
  inhibition: -6.3%
[21]; compound 0.1 µM
  inhibition: -5.2%
[22]; compound 0.01 µM
  inhibition: 0.2%
[22]; compound 0.1 µM
  inhibition: 3.2%
[23]; compound 0.01 µM
  inhibition: 11.8%
[23]; compound 0.1 µM
  inhibition: 37.6%
[24]; compound 0.01 µM
  inhibition: -5.5%
[24]; compound 0.1 µM
  inhibition: 4.8%
[25]; compound 0.01 µM
  inhibition: 17.8%
[25]; compound 0.1 µM
  inhibition: -2%
[26]; compound 0.01 µM
  inhibition: -5.7%
[26]; compound 0.1 µM
  inhibition: 1.6%
[27]; compound 0.01 µM
  inhibition: 10.4%
[27]; compound 0.1 µM
  inhibition: 12.1%

## O=c1c2cc(CS(=O)(=O)NCc3ccccn3)ccc2ccc2ncc(C3CCNCC3)cc12
[28]
  IC50: 1 nM
[29]; compound 0.01 µM
  inhibition: 94.7%
[29]; compound 0.1 µM
  inhibition: 99.3%
